Source: US7851599B2 (Philogen S.p.A., priority 2006, dated 2010)

Assays:
[1] = test system: human pancreatic cancer cell line DanG; experiment: Orthotopic DanG pancreatic cancer xenograft, tumor volume; assay type: in vivo, nude mice
[2] = target: ED-B domain of fibronectin (Homo sapiens, UniProt P02751); settings: cited from earlier work
Sequence of ED-B domain of fibronectin (P02751 1271-1359 limits assumed): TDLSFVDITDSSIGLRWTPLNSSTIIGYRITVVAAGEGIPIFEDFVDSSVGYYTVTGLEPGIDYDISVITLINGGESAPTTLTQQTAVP

## Nc1ccn([C@@H]2O[C@H](CO)[C@@H](O)C2(F)F)c(=O)n1 [gemcitabine, 2′-deoxy-2′,2′-difluorocytidine]
[1]; gemcitabine 250 mg/kg BW days 7, 14, L19IL2 4.29 MIU/kg BW days 8-12, 15-19, or both
  mice with complete remission: no complete remission
[1]; gemcitabine i.p. 250 mg/kg BW once weekly (day 7 and 14), day 21
  pancreatic tumor volume, % compared to control mice: 28%

## scFv L19: human homodimeric single chain Fv antibody fragment L19 specific for the ED-B domain of fibronectin
[2]
  binding affinity for ED-B: picomolar
